# PubChem BioAssay AID1259407 (Chemical Carcinogenesis Research Information System (CCRIS), 2018)
# Activity calls are given as the source filed them. How the calls were made is not given here.
# System: CCRIS mutagenicity, Ames/micronucleus/aberration tests
# Assay: CCRIS mutagenicity studies
# [1] = Test System: AMES SALMONELLA TYPHIMURIUM, Strain/Indicator: TA98, Metabolic Activation: NONE, Method: PREINCUBATION
# [2] = Test System: AMES SALMONELLA TYPHIMURIUM, Strain/Indicator: TA100, Metabolic Activation: NONE, Method: PREINCUBATION
# [3] = Test System: AMES SALMONELLA TYPHIMURIUM, Strain/Indicator: TA98, Metabolic Activation: NONE, Method: STANDARD PLATE
# [4] = Test System: AMES SALMONELLA TYPHIMURIUM, Strain/Indicator: TA98, Metabolic Activation: RAT, LIVER, S-9, AROCLOR 1254, Method: STANDARD PLATE
# [5] = Test System: AMES SALMONELLA TYPHIMURIUM, Strain/Indicator: TA100, Metabolic Activation: NONE, Method: STANDARD PLATE
# [6] = Test System: AMES SALMONELLA TYPHIMURIUM, Strain/Indicator: TA100, Metabolic Activation: RAT, LIVER, S-9, AROCLOR 1254, Method: STANDARD PLATE
# [7] = Test System: AMES SALMONELLA TYPHIMURIUM, Strain/Indicator: TA98(1,8-DNP6), Metabolic Activation: NONE, Method: STANDARD PLATE
smiles,measurement,setting,value
CC(Cl)Cl,mutagenic call,"End Point: IN VIVO CHROMOSOMAL ABERRATIONS, Test System: BONE MARROW, Species: MOUSE, Strain/Sex: SWISS-WEBSTER/MALE, Route: INTRAPERITONEAL",active; positive (structural changes)
same,mutagenic call,"End Point: IN VIVO MICRONUCLEUS, Test System: BONE MARROW, Species: MOUSE, Strain/Sex: SWISS-WEBSTER/MALE, Route: INTRAPERITONEAL",active; positive (dose-dependent)
same,mutagenic call,"Test System: AMES SALMONELLA TYPHIMURIUM, Strain/Indicator: TA97, Metabolic Activation: HAMSTER, LIVER, S-9, AROCLOR 1254 (10%), Method: PREINCUBATION",inactive; negative
same,mutagenic call,"Test System: AMES SALMONELLA TYPHIMURIUM, Strain/Indicator: TA97, Metabolic Activation: HAMSTER, LIVER, S-9, AROCLOR 1254 (30%), Method: PREINCUBATION",inactive; negative
same,mutagenic call,"Test System: AMES SALMONELLA TYPHIMURIUM, Strain/Indicator: TA97, Metabolic Activation: NONE, Method: PREINCUBATION",inactive; negative
same,mutagenic call,"Test System: AMES SALMONELLA TYPHIMURIUM, Strain/Indicator: TA97, Metabolic Activation: RAT, LIVER, S-9, AROCLOR 1254 (10%), Method: PREINCUBATION",inactive; negative
same,mutagenic call,"Test System: AMES SALMONELLA TYPHIMURIUM, Strain/Indicator: TA97, Metabolic Activation: RAT, LIVER, S-9, AROCLOR 1254 (30%), Method: PREINCUBATION",inactive; negative
same,mutagenic call,"Test System: AMES SALMONELLA TYPHIMURIUM, Strain/Indicator: TA98, Metabolic Activation: HAMSTER, LIVER, S-9, AROCLOR 1254 (10%), Method: PREINCUBATION",inactive; negative
same,mutagenic call,"Test System: AMES SALMONELLA TYPHIMURIUM, Strain/Indicator: TA98, Metabolic Activation: HAMSTER, LIVER, S-9, AROCLOR 1254 (30%), Method: PREINCUBATION",inactive; negative
same,mutagenic call,[1],inactive; negative
same,mutagenic call,"Test System: AMES SALMONELLA TYPHIMURIUM, Strain/Indicator: TA98, Metabolic Activation: RAT, LIVER, S-9, AROCLOR 1254 (10%), Method: PREINCUBATION",inactive; negative
same,mutagenic call,"Test System: AMES SALMONELLA TYPHIMURIUM, Strain/Indicator: TA98, Metabolic Activation: RAT, LIVER, S-9, AROCLOR 1254 (30%), Method: PREINCUBATION",inactive; negative
same,mutagenic call,"Test System: AMES SALMONELLA TYPHIMURIUM, Strain/Indicator: TA100, Metabolic Activation: HAMSTER, LIVER, S-9, AROCLOR 1254 (10%), Method: PREINCUBATION",inactive; negative
same,mutagenic call,"Test System: AMES SALMONELLA TYPHIMURIUM, Strain/Indicator: TA100, Metabolic Activation: HAMSTER, LIVER, S-9, AROCLOR 1254 (30%), Method: PREINCUBATION",inactive; negative
same,mutagenic call,[2],inactive; negative
same,mutagenic call,"Test System: AMES SALMONELLA TYPHIMURIUM, Strain/Indicator: TA100, Metabolic Activation: RAT, LIVER, S-9, AROCLOR 1254 (10%), Method: PREINCUBATION",inactive; negative
same,mutagenic call,"Test System: AMES SALMONELLA TYPHIMURIUM, Strain/Indicator: TA100, Metabolic Activation: RAT, LIVER, S-9, AROCLOR 1254 (30%), Method: PREINCUBATION",inactive; negative
same,mutagenic call,"Test System: AMES SALMONELLA TYPHIMURIUM, Strain/Indicator: TA1535, Metabolic Activation: HAMSTER, LIVER, S-9, AROCLOR 1254 (10%), Method: PREINCUBATION",inactive; negative
same,mutagenic call,"Test System: AMES SALMONELLA TYPHIMURIUM, Strain/Indicator: TA1535, Metabolic Activation: HAMSTER, LIVER, S-9, AROCLOR 1254 (30%), Method: PREINCUBATION",inactive; negative
same,mutagenic call,"Test System: AMES SALMONELLA TYPHIMURIUM, Strain/Indicator: TA1535, Metabolic Activation: NONE, Method: PREINCUBATION",inactive; negative
same,mutagenic call,"Test System: AMES SALMONELLA TYPHIMURIUM, Strain/Indicator: TA1535, Metabolic Activation: RAT, LIVER, S-9, AROCLOR 1254 (10%), Method: PREINCUBATION",inactive; negative
same,mutagenic call,"Test System: AMES SALMONELLA TYPHIMURIUM, Strain/Indicator: TA1535, Metabolic Activation: RAT, LIVER, S-9, AROCLOR 1254 (30%), Method: PREINCUBATION",inactive; negative
same,mutagenic call,"Test System: AMES SALMONELLA TYPHIMURIUM, Strain/Indicator: TA1537, Metabolic Activation: HAMSTER, LIVER, S-9, AROCLOR 1254 (30%), Method: PREINCUBATION",inactive; negative
same,mutagenic call,"Test System: AMES SALMONELLA TYPHIMURIUM, Strain/Indicator: TA1537, Metabolic Activation: NONE, Method: PREINCUBATION",inactive; negative
same,mutagenic call,"Test System: AMES SALMONELLA TYPHIMURIUM, Strain/Indicator: TA1537, Metabolic Activation: RAT, LIVER, S-9, AROCLOR 1254 (30%), Method: PREINCUBATION",inactive; negative
CNc1ccc2nc(C)cnc2c1C,mutagenic call,[1],inactive; negative
same,mutagenic call,"Test System: AMES SALMONELLA TYPHIMURIUM, Strain/Indicator: TA98, Metabolic Activation: RAT, LIVER, S-9, PCB, Method: PREINCUBATION",active; positive
same,mutagenic call,[2],inactive; negative
same,mutagenic call,"Test System: AMES SALMONELLA TYPHIMURIUM, Strain/Indicator: TA100, Metabolic Activation: RAT, LIVER, S-9, PCB, Method: PREINCUBATION",active; positive
CC1(O)CC2CCC1(C)C2(C)C (configuration not stated),mutagenic call,[3],inactive; negative
same,mutagenic call,[4],inactive; negative
same,mutagenic call,[5],inactive; negative
same,mutagenic call,[6],inactive; negative
O=NN(c1ccc([N+](=O)[O-])cc1)C1OC[C@H](O)[C@H](O)[C@H]1O (some centres not stated),mutagenic call,[5],active; positive
Nc1cc2ccc3cccc4ccc(c1)c2c34,mutagenic call,"Test System: AMES SALMONELLA TYPHIMURIUM, Strain/Indicator: TA98, Metabolic Activation: RAT, LIVER, S-9, AROCLOR 1254 (2 OR 4%), Method: STANDARD PLATE",active; positive
same,mutagenic call,"Test System: AMES SALMONELLA TYPHIMURIUM, Strain/Indicator: TA100, Metabolic Activation: RAT, LIVER, S-9, AROCLOR 1254 (2%), Method: STANDARD PLATE",active; positive
same,mutagenic call,"Test System: AMES SALMONELLA TYPHIMURIUM, Strain/Indicator: TA1535, Metabolic Activation: RAT, LIVER, S-9, AROCLOR 1254 (2%), Method: STANDARD PLATE",inactive; negative
same,mutagenic call,"Test System: AMES SALMONELLA TYPHIMURIUM, Strain/Indicator: TA1537, Metabolic Activation: RAT, LIVER, S-9, AROCLOR 1254 (2%), Method: STANDARD PLATE",active; positive
Clc1ccc(C(c2ccccc2Cl)C(Cl)(Cl)Cl)cc1 (configuration not stated),mutagenic call,"End Point: IN VIVO CHROMOSOMAL ABERRATIONS, Test System: MAMMARY GLAND CELLS USING DUAL PROBE FISH, Species: RAT, Strain/Sex: SPRAGUE-DAWLEY/FEMALE, Route: SUBCUTANEOUS INJECTION",active; positive (polyploidy)
same,mutagenic call,"End Point: IN VIVO MICRONUCLEUS, Test System: MAMMARY GLAND CELLS, Species: RAT, Strain/Sex: SPRAGUE-DAWLEY/FEMALE, Route: SUBCUTANEOUS INJECTION",inactive; negative
Nc1ccc(/C=C/c2ccc(Cl)cc2)cc1,mutagenic call,[7],inactive; negative
same,mutagenic call,"Test System: AMES SALMONELLA TYPHIMURIUM, Strain/Indicator: TA98(1,8-DNP6), Metabolic Activation: S-9, Method: STANDARD PLATE",active; positive
same,mutagenic call,[3],inactive; negative
same,mutagenic call,[4],active; positive
same,mutagenic call,"Test System: AMES SALMONELLA TYPHIMURIUM, Strain/Indicator: TA98, Metabolic Activation: S-9, Method: STANDARD PLATE",active; positive
same,mutagenic call,[5],inactive; negative
same,mutagenic call,[6],active; positive
same,mutagenic call,"Test System: AMES SALMONELLA TYPHIMURIUM, Strain/Indicator: TA100, Metabolic Activation: S-9, Method: STANDARD PLATE",active; positive
O=[N+]([O-])c1cccc2c1c([N+](=O)[O-])cc1ccccc12,mutagenic call,[7],active; positive
same,mutagenic call,"Test System: AMES SALMONELLA TYPHIMURIUM, Strain/Indicator: TA98(NR), Metabolic Activation: NONE, Method: STANDARD PLATE",active; positive
same,mutagenic call,[3],active; positive
same,mutagenic call,[5],active; positive
same,mutagenic call,"Test System: AMES SALMONELLA TYPHIMURIUM, Strain/Indicator: YG1021, Metabolic Activation: NONE, Method: STANDARD PLATE",active; positive
same,mutagenic call,"Test System: AMES SALMONELLA TYPHIMURIUM, Strain/Indicator: YG1024, Metabolic Activation: NONE, Method: STANDARD PLATE",active; positive
same,mutagenic call,"Test System: AMES SALMONELLA TYPHIMURIUM, Strain/Indicator: YG1026, Metabolic Activation: NONE, Method: STANDARD PLATE",active; positive
same,mutagenic call,"Test System: AMES SALMONELLA TYPHIMURIUM, Strain/Indicator: YG1029, Metabolic Activation: NONE, Method: STANDARD PLATE",active; positive
Cc1c2ccccc2c(COS(=O)(=O)O)c2ccc3ccccc3c12,mutagenic call,[1],active; positive
